A word on the pIC50: it is −log10 of the IC50, conventionally taken in molar units. High values mean a low IC50, low ones a high IC50.

Test [1] deals with T1, BCDIN3D (Homo sapiens, UniProt Q7Z5W3).
T1 sequence (Q7Z5W3 1-292): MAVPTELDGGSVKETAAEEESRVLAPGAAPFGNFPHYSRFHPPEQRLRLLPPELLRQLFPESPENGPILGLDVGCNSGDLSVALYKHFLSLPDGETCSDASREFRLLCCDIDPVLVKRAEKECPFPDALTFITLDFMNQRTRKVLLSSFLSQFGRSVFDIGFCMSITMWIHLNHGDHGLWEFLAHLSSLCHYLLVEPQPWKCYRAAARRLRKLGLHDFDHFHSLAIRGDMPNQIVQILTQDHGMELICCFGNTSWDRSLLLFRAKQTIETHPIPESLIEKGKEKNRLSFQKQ
The test can be described thus: BCDIN3D InCellPulse thermal stability assay in transfected A549 cells. The class given is cell-based. The conditions noted are these: transiently transfected A549 cells, heat shock 58° C. 15 min. The method, boiled down:
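A549 cells transiently expressing BCDIN3D N-terminally fused to ePL ProLabel tag, 1500 cells/well, pre-incubated 1 h at 37 °C with compound (0.6% DMSO). Heat shock 58 °C for 15 min; remaining soluble fusion detected by split β-galactosidase complementation luminescence.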

In test [2] the target is T1, BCDIN3D. The test can be described thus: BCDIN3D IC50 RFMS (RapidFire) assay with mini-helix. The class given is biochemical. The conditions noted are these: mini-helix substrate 0.2 μM, SAM 6 μM, 25 nM enzyme. A digest of the protocol:
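25 nM enzyme preincubated 10 min at room temperature with compound (1% DMSO) in 25 mM Tris pH 8.0, 10 mM DTT, 1 mM EDTA, 0.03% BSA. Reaction started with 0.2 μM mini-helix plus 6 μM SAM, run 1 h at 37 °C, quenched with TCA; SAH product quantified by RapidFire MS against isotopic SAH standards.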

pIC50: −log10 of the molar value.

In the case of `COC1CC(Nc2nc(NC[C@H](N)c3ccccc3)nc3c2cnn3C)C1` (stereo partly drawn) [Compound 4.92, N6-[(2R)-2-amino-2-phenyl-ethyl]-N4-(3-methoxycyclobutyl)-1-methyl-pyrazolo[3,4-d]pyrimidine-4,6-diamine], the negative logarithm of the IC50 (pIC50) is 6.34 at BCDIN3D [1] and 6.46 at BCDIN3D [2].

Take `Cn1ncc2c(NC3CC(Cl)(Cl)C3)nc(NC[C@H](N)c3ccccc3)nc21` [Compound 4.93, N6-[(2R)-2-amino-2-phenyl-ethyl]-N4-(3,3-dichlorocyclobutyl)-1-methyl-pyrazolo[3,4-d]pyrimidine-4,6-diamine]: the values for the pIC50 against BCDIN3D [1] and on BCDIN3D [2] were 7.14 and 7.59, respectively.

`Cn1ncc2c(NC3CC4(C3)CC(F)(F)C4)nc(NC[C@H](N)c3ccccc3)nc21` [Compound 4.94, N6-[(2R)-2-amino-2-phenyl-ethyl]-N4-(2,2-difluorospiro[3.3]heptan-6-yl)-1-methyl-pyrazolo[3,4-d]pyrimidine-4,6-diamine]: the pIC50 against BCDIN3D [1] was 7.33; at BCDIN3D [2], 8.21.

As for `Cn1ncc2c(NC3CC4(COC4)C3)nc(NC[C@H](N)c3ccccc3)nc21` [Compound 4.95, N6-[(2R)-2-amino-2-phenyl-ethyl]-1-methyl-N4-(2-oxaspiro[3.3]heptan-6-yl)pyrazolo[3,4-d]pyrimidine-4,6-diamine], the pIC50 was 6.34 against BCDIN3D [1] and 6.43 on BCDIN3D [2].

With `Cn1ncc2c(NC3CC(C)(C)C3)nc(NC[C@H](N)c3ccccc3)nc21` [Compound 4.96, N6-[(2R)-2-amino-2-phenyl-ethyl]-N4-(3,3-dimethylcyclobutyl)-1-methyl-pyrazolo[3,4-d]pyrimidine-4,6-diamine], the pIC50 against BCDIN3D [1] is 7.66; against BCDIN3D [2] it was 7.85.

In the case of `Cn1ncc2c(NC3CC(C)(F)C3)nc(NC[C@H](N)c3ccccc3)nc21` (stereo partly drawn) [Compound 4.97, N6-[(2R)-2-amino-2-phenyl-ethyl]-N4-(3-fluoro-3-methyl-cyclobutyl)-1-methyl-pyrazolo[3,4-d]pyrimidine-4,6-diamine], the values for the pIC50 at BCDIN3D [1] and against BCDIN3D [2] were 6.75 and 7.07, respectively.

As for `C[C@H](Nc1nc(NC[C@H](N)c2ccccc2)nc2c1cnn2C)C(F)(F)F` [Compound 4.98, N6-[(2R)-2-amino-2-phenyl-ethyl]-1-methyl-N4-[(1S)-2,2,2-trifluoro-1-methyl-ethyl]pyrazolo[3,4-d]pyrimidine-4,6-diamine], the pIC50 at BCDIN3D [1] was 6.63; against BCDIN3D [2] it was 6.87.

For the compound `Cn1ncc2c(NC3CC4(CCC4)C3)nc(NC[C@H](N)c3ccccc3)nc21` [Compound 4.99, N6-[(2R)-2-amino-2-phenyl-ethyl]-1-methyl-N4-spiro[3.3]heptan-2-yl-pyrazolo[3,4-d]pyrimidine-4,6-diamine], the values for the pIC50 on BCDIN3D [1] and against BCDIN3D [2] were 7.77 and 8.10, respectively.

Take `COCC(C)(C)Nc1nc(NC[C@H](N)c2ccccc2)nc2c1cnn2C` [Compound 4.100, N6-[(2R)-2-amino-2-phenyl-ethyl]-N4-(2-methoxy-1,1-dimethyl-ethyl)-1-methyl-pyrazolo[3,4-d]pyrimidine-4,6-diamine]: the pIC50 against BCDIN3D [1] was 5.73; against BCDIN3D [2], 5.88.

Consider `CCC(C)(C)Nc1nc(NC[C@H](N)c2ccccc2)nc2c1cnn2C` [Compound 4.101, N6-[(2R)-2-amino-2-phenyl-ethyl]-N4-(1,1-dimethylpropyl)-1-methyl-pyrazolo[3,4-d]pyrimidine-4,6-diamine], for which the values for the pIC50 at BCDIN3D [1] and against BCDIN3D [2] were 6.48 and 6.33, respectively.

As to `C[C@H](Nc1nc(NC[C@H](N)c2ccccc2)nc2c1cnn2C)C1CC1` [Compound 4.102, N6-[(2R)-2-amino-2-phenyl-ethyl]-N4-[(1S)-1-cyclopropylethyl]-1-methyl-pyrazolo[3,4-d]pyrimidine-4,6-diamine], the pIC50 against BCDIN3D [1] is 5.58; against BCDIN3D [2], 5.36.

Regarding `CC(C)CNc1nc(NC[C@H](N)c2ccccc2)nc2c1cnn2C` [Compound 4.103, N6-[(2R)-2-amino-2-phenyl-ethyl]-N4-isobutyl-1-methyl-pyrazolo[3,4-d]pyrimidine-4,6-diamine], the pIC50 on BCDIN3D [1] was 6.32; on BCDIN3D [2], 6.49.

Consider `Cn1ncc2c(NCC3CC34CCC4)nc(NC[C@H](N)c3ccccc3)nc21` (stereo partly drawn) [Compound 4.104, N6-[(2R)-2-amino-2-phenyl-ethyl]-1-methyl-N4-(spiro[2.3]hexan-2-ylmethyl)pyrazolo[3,4-d]pyrimidine-4,6-diamine], for which the pIC50 against BCDIN3D [1] was 7.25; on BCDIN3D [2] it was 7.55.

For the compound `Cn1ncc2c(NCC3CCC3)nc(NC[C@H](N)c3ccccc3)nc21` [Compound 4.105, N6-[(2R)-2-amino-2-phenyl-ethyl]-N4-(cyclobutylmethyl)-1-methyl-pyrazolo[3,4-d]pyrimidine-4,6-diamine], the pIC50 against BCDIN3D [1] is 6.84; at BCDIN3D [2], 7.13.

Take `Cn1ncc2c(NCC3CCC3(F)F)nc(NC[C@H](N)c3ccccc3)nc21` (stereo partly drawn) [Compound 4.106, N6-[(2R)-2-amino-2-phenyl-ethyl]-N4-[(2,2-difluorocyclobutyl)methyl]-1-methyl-pyrazolo[3,4-d]pyrimidine-4,6-diamine]: the results for the pIC50 against BCDIN3D [1] and against BCDIN3D [2] were 6.36 and 6.83, respectively.

`Cn1ncc2c(NCC3(F)CCC3)nc(NC[C@H](N)c3ccccc3)nc21` [Compound 4.107, N6-[(2R)-2-amino-2-phenyl-ethyl]-N4-[(1-fluorocyclobutyl)methyl]-1-methyl-pyrazolo[3,4-d]pyrimidine-4,6-diamine]: the pIC50 against BCDIN3D [1] is 6.21; at BCDIN3D [2], 6.55.

With `Cn1ncc2c(NCC3CC(F)C3)nc(NC[C@H](N)c3ccccc3)nc21` (stereo partly drawn) [Compound 4.108, N6-[(2R)-2-amino-2-phenyl-ethyl]-N4-[(3-fluorocyclobutyl)methyl]-1-methyl-pyrazolo[3,4-d]pyrimidine-4,6-diamine], the pIC50 at BCDIN3D [1] is 6.21; against BCDIN3D [2], 6.54.

Turning to `Cn1ncc2c(NC3CC(C(F)(F)F)C3)nc(NC[C@H](N)c3ccccc3)nc21` (stereo partly drawn) [Compound 4.109, N6-[(2R)-2-amino-2-phenyl-ethyl]-1-methyl-N4-[3-(trifluoromethyl)cyclobutyl]pyrazolo[3,4-d]pyrimidine-4,6-diamine], the pIC50 on BCDIN3D [1] is 7.47; against BCDIN3D [2], 7.77.

Consider `Cn1ncc2c(NCC(C)(C)F)nc(NC[C@H](N)c3ccccc3)nc21` [Compound 4.110, N6-[(2R)-2-amino-2-phenyl-ethyl]-N4-(2-fluoro-2-methyl-propyl)-1-methyl-pyrazolo[3,4-d]pyrimidine-4,6-diamine], for which the pIC50 against BCDIN3D [1] is 6.17; against BCDIN3D [2], 6.26.

As to `Cn1ncc2c(NC3(C)CCCCC3)nc(NC[C@H](N)c3ccccc3)nc21` [Compound 4.111, N6-[(2R)-2-amino-2-phenyl-ethyl]-1-methyl-N4-(1-methylcyclohexyl)pyrazolo[3,4-d]pyrimidine-4,6-diamine], the values for the pIC50 against BCDIN3D [1] and against BCDIN3D [2] were 6.53 and 6.43, respectively.

With `Cn1ncc2c(NCC3CCC3F)nc(NC[C@H](N)c3ccccc3)nc21` (stereo partly drawn) [Compound 4.112, N6-[(2R)-2-amino-2-phenyl-ethyl]-N4-[(2-fluorocyclobutyl)methyl]-1-methyl-pyrazolo[3,4-d]pyrimidine-4,6-diamine], the figures for the pIC50 at BCDIN3D [1] and against BCDIN3D [2] were 6.36 and 6.79, respectively.

With `Cn1ncc2c(NC3CCCC3)nc(NC[C@H](N)c3ccccc3)nc21` [Compound 4.113, N6-[(2R)-2-amino-2-phenyl-ethyl]-N4-cyclopentyl-1-methyl-pyrazolo[3,4-d]pyrimidine-4,6-diamine], the pIC50 against BCDIN3D [1] is 6.83; against BCDIN3D [2], 7.21.
